Assay results as given in article PMC9519552, “Activation of the human insulin receptor by non-insulin-related peptides” (Nature Communications, 2022).
Where two headings read alike, the source gives them in different places. Positions of bridges follow the written chain, without caps; N, C: chain ends. Residues, ends and D or L forms follow the SMILES beside them.

Columns and labels:
[1] = target: T1, human IR-A (holoIR-A) (Homo sapiens, UniProt P06213); experiment: holoIR-A competitive radioligand binding assay (scintillation proximity assay); settings: for Ki: IM172N22(-) mutant peptide set; for reduction in ki for hIR-A on substitution: relative to control peptide IM172N22 devoid of N-terminal phenylacetylation; for binding of the mutant peptide to hIR-A (in words): alanine substitution in IM172N22(-)
T1 construct: expressed in transfected cells; host or cells: HEK293 (ATCC #CRL-1573), stably transfected; membrane preparation
T1 sequence (P06213 28-1370 isoform P06213-2 limits assumed): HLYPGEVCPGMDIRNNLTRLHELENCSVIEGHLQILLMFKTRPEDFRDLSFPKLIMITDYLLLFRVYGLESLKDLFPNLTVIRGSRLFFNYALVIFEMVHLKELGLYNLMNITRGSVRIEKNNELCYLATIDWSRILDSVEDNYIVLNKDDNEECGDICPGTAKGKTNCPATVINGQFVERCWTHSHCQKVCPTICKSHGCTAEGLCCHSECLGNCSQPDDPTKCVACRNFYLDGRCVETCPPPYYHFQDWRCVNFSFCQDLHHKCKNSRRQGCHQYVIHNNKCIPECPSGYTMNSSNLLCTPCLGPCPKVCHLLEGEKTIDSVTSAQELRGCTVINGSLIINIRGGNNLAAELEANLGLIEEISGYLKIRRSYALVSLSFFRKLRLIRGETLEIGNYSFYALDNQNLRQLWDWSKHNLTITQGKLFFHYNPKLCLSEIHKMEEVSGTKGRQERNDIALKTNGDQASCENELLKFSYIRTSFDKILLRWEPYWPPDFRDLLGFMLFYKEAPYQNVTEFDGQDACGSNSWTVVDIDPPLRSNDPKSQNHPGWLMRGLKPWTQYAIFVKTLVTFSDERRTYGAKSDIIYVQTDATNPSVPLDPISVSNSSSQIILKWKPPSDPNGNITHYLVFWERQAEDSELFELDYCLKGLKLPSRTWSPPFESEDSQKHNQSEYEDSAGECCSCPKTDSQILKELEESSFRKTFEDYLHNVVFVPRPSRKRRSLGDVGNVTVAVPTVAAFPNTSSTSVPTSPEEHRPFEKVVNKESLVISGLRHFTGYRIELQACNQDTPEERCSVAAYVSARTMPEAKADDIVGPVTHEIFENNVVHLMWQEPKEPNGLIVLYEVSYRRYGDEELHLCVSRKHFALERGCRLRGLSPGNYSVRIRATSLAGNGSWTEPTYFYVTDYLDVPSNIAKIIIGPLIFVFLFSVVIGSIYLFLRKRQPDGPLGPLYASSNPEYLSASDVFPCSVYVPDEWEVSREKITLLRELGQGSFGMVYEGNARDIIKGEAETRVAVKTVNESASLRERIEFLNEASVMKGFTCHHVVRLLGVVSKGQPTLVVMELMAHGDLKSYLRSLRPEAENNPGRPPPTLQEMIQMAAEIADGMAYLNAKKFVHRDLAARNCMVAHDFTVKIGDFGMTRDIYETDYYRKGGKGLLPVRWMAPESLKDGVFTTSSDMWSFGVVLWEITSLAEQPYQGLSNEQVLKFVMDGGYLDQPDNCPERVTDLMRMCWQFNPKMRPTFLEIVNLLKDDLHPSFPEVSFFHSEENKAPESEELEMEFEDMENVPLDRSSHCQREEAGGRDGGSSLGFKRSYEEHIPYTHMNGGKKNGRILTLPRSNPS
T1 sequence (P06213 763-1382 partner limits assumed): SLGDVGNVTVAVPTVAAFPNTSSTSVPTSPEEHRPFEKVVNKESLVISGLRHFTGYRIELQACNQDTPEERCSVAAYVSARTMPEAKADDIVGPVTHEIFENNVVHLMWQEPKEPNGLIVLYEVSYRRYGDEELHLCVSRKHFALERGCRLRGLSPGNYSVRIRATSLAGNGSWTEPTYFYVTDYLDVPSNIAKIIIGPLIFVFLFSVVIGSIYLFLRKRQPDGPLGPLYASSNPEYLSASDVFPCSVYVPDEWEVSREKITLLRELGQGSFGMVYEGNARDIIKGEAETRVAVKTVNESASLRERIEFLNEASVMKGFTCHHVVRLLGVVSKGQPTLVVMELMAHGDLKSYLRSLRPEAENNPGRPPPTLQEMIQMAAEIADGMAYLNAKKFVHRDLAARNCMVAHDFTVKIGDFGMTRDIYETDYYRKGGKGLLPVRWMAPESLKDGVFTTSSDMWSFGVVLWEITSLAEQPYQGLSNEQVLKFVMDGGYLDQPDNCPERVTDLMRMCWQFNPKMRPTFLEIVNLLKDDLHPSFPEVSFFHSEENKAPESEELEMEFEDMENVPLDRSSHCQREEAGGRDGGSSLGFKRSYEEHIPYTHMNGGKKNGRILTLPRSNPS
Method in brief: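 Membranes from HEK293 cells stably expressing C9-tagged human IR-A were used in a WGA-bead SPA competition assay in 50 mM Tris-HCl pH 7.5, 150 mM NaCl, 0.1% fatty-acid-free BSA. Ten-point 3-fold dilutions were incubated 10 h at room temperature before scintillation counting. Percent specific inhibition was calculated after nonspecific-binding correction, from three independent runs.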

[2] = target: T2, human holoIR-A over-expressed in HEK293 cells (Homo sapiens, UniProt P06213); experiment: Inhibition of hIR phosphorylation by peptides, co-incubated with BHI at its EC50 (ELISA); format: cell-based; settings: for hIRA Phosph IC50 Run 1 / hIRA Phosph IC50 Run 2 / hIRA Phosph IC50 Run 3: inhibition of insulin-stimulated phosphorylation; for hIRA Phosph IC50 Run 1: BHI at its EC50, run 1; for hIRA Phosph IC50 Run 2: BHI at its EC50, run 2; for hIRA Phosph IC50 Run 3: BHI at its EC50, run 3; for IC50: read-out: hIRA Phosph IC50 Mean
T2 construct: expressed in transfected cells; host or cells: HEK293, stably transfected
T2 sequence (P06213 28-1370 isoform P06213-2 limits assumed): as the sequence (P06213 28-1370 isoform P06213-2 limits assumed) above
T2 sequence (P06213 763-1382 partner limits assumed): as the sequence (P06213 763-1382 partner limits assumed) above
Method in brief: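 Phosphorylation ELISA (TMB, A450) after anti-C9 capture of lysates from stably transfected HEK293 cells expressing C-terminally C9-tagged human holoIR-A, serum-starved overnight in 0.1% BSA/DMEM. Percent specific response versus log concentration, from three independent runs on three days.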

[3] = mean of 3 runs, read-out: hIRA Binding Ki Mean
[4] = run 1, read-out: hIRA Binding Ki Run 1
[5] = run 2, read-out: hIRA Binding Ki Run 2
[6] = run 3, read-out: hIRA Binding Ki Run 3

Ki [1, 3] [nM]	Ki [1, 4] [nM]	Ki [1, 5] [nM]	Ki [1, 6] [nM]	hIRA Phosph IC50 Run 1 [2] [nM]	hIRA Phosph IC50 Run 2 [2] [nM]	hIRA Phosph IC50 Run 3 [2] [nM]	IC50 [2] [nM]	reduction in ki for hIR-A on substitution [1]	binding of the mutant peptide to hIR-A (in words) [1]	Compound
167	145	184	172	1117	1161	1465	1250	–	–	CC[C@H](C)[C@H](NC(=O)[C@H](CCC(N)=O)NC(=O)[C@H](C)NC(=O)[C@H](Cc1c[nH]c2ccccc12)NC(=O)[C@H](CCC(=O)O)NC(=O)[C@H](CCC(=O)O)NC(=O)[C@H](CCC(=O)O)NC(=O)[C@H](CC(C)C)NC(=O)[C@H](CO)NC(C)=O)C(=O)N[C@@H](CCC(=O)O)C(=O)N[C@H]1CSSC[C@@H](C(=O)N2CCC[C@H]2C(=O)N2CCC[C@H]2C(=O)N[C@@H](CO)C(=O)N[C@@H](CCC(=O)O)C(=O)N[C@@H](CO)C(N)=O)NC(=O)[C@H](CCC(=O)O)NC(=O)CNC(=O)[C@H](Cc2ccc(O)cc2)NC(=O)[C@H](C(C)C)NC(=O)[C@H](CCC(=O)O)NC1=O [Peptide R16E] (Ac-SLEEEWAQIECEVYGECPPSES-NH2; disulfide 11-17)
9.1	8.71	8.06	10.5	119	127	121	122	lower than 5 fold	–	CC[C@H](C)[C@H](NC(=O)[C@H](CCC(N)=O)NC(=O)[C@H](C)NC(=O)[C@H](Cc1c[nH]c2ccccc12)NC(=O)[C@H](CCC(=O)O)NC(=O)[C@H](CCC(=O)O)NC(=O)[C@H](CCC(=O)O)NC(=O)[C@H](CC(C)C)NC(=O)[C@H](C)NC(C)=O)C(=O)N[C@@H](CCC(=O)O)C(=O)N[C@H]1CSSC[C@@H](C(=O)N2CCC[C@H]2C(=O)N2CCC[C@H]2C(=O)N[C@@H](CO)C(=O)N[C@@H](CCC(=O)O)C(=O)N[C@@H](CO)C(N)=O)NC(=O)[C@H](CCCNC(=N)N)NC(=O)CNC(=O)[C@H](Cc2ccc(O)cc2)NC(=O)[C@H](C(C)C)NC(=O)[C@H](CCC(=O)O)NC1=O [Peptide S1A] (Ac-ALEEEWAQIECEVYGRCPPSES-NH2; disulfide 11-17)
5.4	4.72	5.70	5.77	53	40	53	48.5	lower than 5 fold	–	CC[C@H](C)[C@H](NC(=O)[C@H](CCC(N)=O)NC(=O)[C@H](C)NC(=O)[C@H](Cc1c[nH]c2ccccc12)NC(=O)[C@H](CCC(=O)O)NC(=O)[C@H](CCC(=O)O)NC(=O)[C@H](CCC(=O)O)NC(=O)[C@H](CC(C)C)NC(=O)[C@H](CO)NC(C)=O)C(=O)N[C@@H](CCC(=O)O)C(=O)N[C@H]1CSSC[C@@H](C(=O)N2CCC[C@H]2C(=O)N2CCC[C@H]2C(=O)N[C@@H](C)C(=O)N[C@@H](CCC(=O)O)C(=O)N[C@@H](CO)C(N)=O)NC(=O)[C@H](CCCNC(=N)N)NC(=O)CNC(=O)[C@H](Cc2ccc(O)cc2)NC(=O)[C@H](C(C)C)NC(=O)[C@H](CCC(=O)O)NC1=O [Peptide S20A] (Ac-SLEEEWAQIECEVYGRCPPAES-NH2; disulfide 11-17)
16.2	14.6	16.1	17.8	78	103	88	89.8	lower than 5 fold	–	CC[C@H](C)[C@H](NC(=O)[C@H](CCC(N)=O)NC(=O)[C@H](C)NC(=O)[C@H](Cc1c[nH]c2ccccc12)NC(=O)[C@H](CCC(=O)O)NC(=O)[C@H](CCC(=O)O)NC(=O)[C@H](CCC(=O)O)NC(=O)[C@H](CC(C)C)NC(=O)[C@H](CO)NC(C)=O)C(=O)N[C@@H](CCC(=O)O)C(=O)N[C@H]1CSSC[C@@H](C(=O)N2CCC[C@H]2C(=O)N2CCC[C@H]2C(=O)N[C@@H](CO)C(=O)N[C@@H](CCC(=O)O)C(=O)N[C@@H](C)C(N)=O)NC(=O)[C@H](CCCNC(=N)N)NC(=O)CNC(=O)[C@H](Cc2ccc(O)cc2)NC(=O)[C@H](C(C)C)NC(=O)[C@H](CCC(=O)O)NC1=O [Peptide S22A] (Ac-SLEEEWAQIECEVYGRCPPSEA-NH2; disulfide 11-17)
215	203	265	177	2321	2401	2832	2520	–	–	CC[C@H](C)[C@H](NC(=O)[C@H](CCC(N)=O)NC(=O)[C@H](C)NC(=O)[C@H](Cc1c[nH]c2ccccc12)NC(=O)[C@H](CCC(=O)O)NC(=O)[C@H](CCC(=O)O)NC(=O)[C@H](CCC(=O)O)NC(=O)[C@H](CC(C)C)NC(=O)[C@H](CO)NC(C)=O)C(=O)N[C@@H](CCC(=O)O)C(=O)N[C@H]1CSSC[C@@H](C(=O)N2CCC[C@H]2C(=O)N2CCC[C@H]2C(=O)N[C@@H](CO)C(=O)N[C@@H](CCC(=O)O)C(=O)N[C@@H](CO)C(N)=O)NC(=O)[C@H](CCCNC(=N)N)NC(=O)CNC(=O)[C@H](Cc2ccc(O)cc2)NC(=O)[C@H](C)NC(=O)[C@H](CCC(=O)O)NC1=O [Peptide V13A] (Ac-SLEEEWAQIECEAYGRCPPSES-NH2; disulfide 11-17)
> 4240	> 1210	> 4160	> 4240	>10000	>10000	>10000	> 10000	–	no detectable binding	CC[C@H](C)[C@H](NC(=O)[C@H](CCC(N)=O)NC(=O)[C@H](C)NC(=O)[C@H](C)NC(=O)[C@H](CCC(=O)O)NC(=O)[C@H](CCC(=O)O)NC(=O)[C@H](CCC(=O)O)NC(=O)[C@H](CC(C)C)NC(=O)[C@H](CO)NC(C)=O)C(=O)N[C@@H](CCC(=O)O)C(=O)N[C@H]1CSSC[C@@H](C(=O)N2CCC[C@H]2C(=O)N2CCC[C@H]2C(=O)N[C@@H](CO)C(=O)N[C@@H](CCC(=O)O)C(=O)N[C@@H](CO)C(N)=O)NC(=O)[C@H](CCCNC(=N)N)NC(=O)CNC(=O)[C@H](Cc2ccc(O)cc2)NC(=O)[C@H](C(C)C)NC(=O)[C@H](CCC(=O)O)NC1=O [Peptide W6A] (Ac-SLEEEAAQIECEVYGRCPPSES-NH2; disulfide 11-17)
> 4240	> 1210	> 4160	> 4240	>10000	>10000	>10000	> 10000	–	no detectable binding	CC[C@H](C)[C@H](NC(=O)[C@H](CCC(N)=O)NC(=O)[C@H](C)NC(=O)[C@H](Cc1c[nH]c2ccccc12)NC(=O)[C@H](CCC(=O)O)NC(=O)[C@H](CCC(=O)O)NC(=O)[C@H](CCC(=O)O)NC(=O)[C@H](CC(C)C)NC(=O)[C@H](CO)NC(C)=O)C(=O)N[C@@H](CCC(=O)O)C(=O)N[C@H]1CSSC[C@@H](C(=O)N2CCC[C@H]2C(=O)N2CCC[C@H]2C(=O)N[C@@H](CO)C(=O)N[C@@H](CCC(=O)O)C(=O)N[C@@H](CO)C(N)=O)NC(=O)[C@H](CCCNC(=N)N)NC(=O)CNC(=O)[C@H](C)NC(=O)[C@H](C(C)C)NC(=O)[C@H](CCC(=O)O)NC1=O [Peptide Y14A] (Ac-SLEEEWAQIECEVAGRCPPSES-NH2; disulfide 11-17)
